{
  "source": "paper PMC13147323",
  "about": "“EGFR-Targeted and MMP-Activated Membranolytic Peptides Kill Cancer Cells Specifically In Vitro and Reduce Tumor Growth In Vivo” (Molecular Pharmaceutics, 2026)",
  "key": {"MDA-MB-468 cells [1]": {"tested_on": "MDA-MB-468 cells", "format": "cell-based, human", "details": "24 h", "experimental": "(§1) MDA-MB-468, MDA-MB-231, BT-474, AU-565, HB2, and MCF-10A cells were procured from American Type Culture Collection (ATCC) and validated for lack of mycoplasma contamination (MycoAlert; Lonza, Basel, Switzerland) and identity (short tandem repeat profiling; Source Bioscience, Nottingham, UK). Cells (except MCF-10A) were cultured in Dulbecco’s modified Eagle medium (DMEM) supplemented with 10% (v/v) fetal calf serum (FCS) and 100 units/mL penicillin–streptomycin (Thermo Scientific; Waltham, MA, USA). MCF-10A was cultured in DMEM supplemented with 5% horse serum, 0.1 μg/mL cholera toxin, 0.5 μg/mL hydrocortisone, 0.02 μg/mL epidermal growth factor, and 100 units/mL penicillin–streptomycin (Thermo Scientific, Waltham, MA, USA). Cells were grown at 37 °C in a humidified incubator with 5% CO2. Cells were maintained and experiments were performed under conditions ensuring cell densities that supported exponential growth.\n(§2) Cells were seeded in 96-well plates at 1 × 10^4 cells/well in complete growth media and incubated for 18 h. Cells were then treated with peptides (0–250 μM) for up to 24 h. Cells were then incubated with 0.5 mg/mL MTT dissolved in PBS for 3 h. Formazan crystals were dissolved using […] of isopropanol and absorbance was measured at 570 nm on a microplate spectrophotometer (Biotech Instruments, USA). For spheroids assays, MDA-MB-468 or HB2 cells (1000 cells/well) were seeded in 250 μL of DMEM supplemented with 10% FCS and 2.5% Matrigel (Corning, New York, USA) in low-adherent, round-bottom 96-well plates (Corning, New York, USA). The plates were centrifuged at 360g for 10 min and subsequently incubated for 48 h to allow spheroid formation. MDA-MB-468 or HB2 spheroids were then treated with peptides at the IC50 doses determined for MDA-MB-468 cells for 24 h. Cellular viability within spheroids was assessed by staining with Hoechst 33342 (5 μg/mL) for 30 min, followed by propidium iodide (PI) (1.5 μg/mL) for 10 min. Red fluorescence indicated nonviable cells stained with PI, whereas blue fluorescence represented both viable and nonviable cells stained with Hoechst 33342. The survival of spheroids was determined by calculating ratios of blue/red fluorescence using ImageJ software.\n(§3) A panel of human breast epithelial cell lines was established, including two lines from a nontransformed origin (MCF-10A; HB2) and four cancer lines (BT-474; AU-565; MDA-MB-231; MDA-MB-468). Cells were treated with different doses of MP1 or the modified peptides. Survival was assessed relative to untreated using MTT assays (Figures and S2) and IC50 doses were determined for each peptide in each cell line."}, "HB2 cells": {"tested_on": "HB2 cells", "format": "cell-based, human", "details": "24 h", "experimental": "as §1, §2, §3"}, "MDA-MB-468 cells [2]": {"tested_on": "MDA-MB-468 cells", "experiment": "MTT survival with or without MMP-2 inhibitor, MDA-MB-468", "format": "cell-based, human", "details": "MDA-MB-468, MTT, 24 h; 20 μM EGFR-MP1, 30 μM EGFR-MMP-MP1 or 2 μM chlorhexidine dihydrochloride alone", "experimental": "Cells were seeded in 6-well plates at 3 × 10^5 in complete medium and allowed to grow for 48 h. 500 μL of cell media from each cell line was collected and centrifuged at 5000 rpm for 15 min at 4 °C. Supernatants were collected and 50 μL of each was added in 3 replicate wells of a monoclonal mouse antihuman MMP-2 antibody precoated 96-well ELISA plate (Human Total MMP-2 kit; BioLegend, USA). It was then mixed with the respective assay buffers as per the kit instruction. The plate was then sealed and incubated at room temperature (2 h). The supernatant sample was then discarded and the wells were washed with assay buffer several times. Next, 100 μL of Human Total MMP-2 Detection Antibody solution was added into the wells and incubated (1 h). 100 μL of Avidin-HRP solution was then added for 1 h, and finally, after washing, 100 μL of substrate solution was added. Absorbance was measured at 450 nm (Biotech Instruments, USA). The final MMP-2 concentration was calculated against a standard curve. […]\nWe were also interested to test formally whether the efficacy of EGFR-MMP-MP1 was dependent on MMP-2 activity. Therefore, we treated MDA-MB-468 cells with EGFR-MMP-MP1 or with EGFR-MP1, in the presence or absence of the MMP-2 inhibitor chlorhexidine dihydrochloride, and assessed cell survival relative to untreated (Figure C,D)."}, "BT-474 cells": {"tested_on": "BT-474 cells", "format": "cell-based, human", "details": "24 h", "experimental": "as §1, §2, §3"}, "AU-565 cells": {"tested_on": "AU-565 cells", "format": "cell-based, human", "details": "24 h", "experimental": "as §1, §2, §3"}, "MDA-MB-231 cells": {"tested_on": "MDA-MB-231 cells", "format": "cell-based, human", "details": "24 h", "experimental": "as §1, §2, §3"}, "MCF-10A cells": {"tested_on": "MCF-10A cells", "format": "cell-based, human", "details": "24 h", "experimental": "as §1, §2, §3"}, "red blood cells": {"tested_on": "red blood cells", "experiment": "Ex vivo hemolysis assay", "format": "cell-based", "details": "mouse RBCs 1:50 in PBS, 1 h, 37 °C, absorbance 540 nm", "experimental": "Blood was collected from five 10-week-old male C57BL/6 mice via cardiac puncture following cervical dislocation, using pediatric blood collection tubes containing K3 EDTA (Greiner; Slušovice, Czechia). Blood was centrifuged (500g; 5 min; 4 °C) and plasma was removed. Red blood cells (RBCs) were resuspended to their original volume using 150 mM NaCl. RBCs were repeatedly washed and diluted to 1:50 in PBS. For a positive control, 1% (v/v) Triton X-100 was used (100% lysis), while cells incubated in PBS served as a negative control (0% lysis). 200 μL of RBCs in triplicate was treated with peptides and incubated on an orbital shaker (100 rpm; 1 h; 37 °C). Samples were centrifuged (500g; 5 min) and supernatants, containing lysed RBCs, were collected. Hemolysis was quantified by measuring absorbance at 540 nm.\nOur next aim was to assess whether our various peptides had potential as anticancer therapeutics using an in vivo model. To our knowledge, MP1 or MP1-derived peptides have not previously been used experimentally in vivo, therefore we first performed an in vitro hemolysis assay to aid selection of peptides that could be suitable for intravenous delivery. Red blood cells were isolated from mouse blood and treated with three different doses of MP1 wildtype or our targeted peptides (EGFR and EGFR-MMP versions of both MP1 and D2K) and hemolysis was measured (Figure A)."}},
  "note": "Entries after “also recorded” stand apart in the source; their conditions may differ. Where a name gives a salt, the structure may show the parent alone. Residues, ends and D or L forms follow the SMILES beside them.",
  "data": [
    {"smiles": "CC[C@H](C)[C@H](N)C(=O)N[C@@H](CCCCN)C(=O)N[C@@H](Cc1c[nH]c2ccccc12)C(=O)N[C@@H](CCCCN)C(=O)N[C@@H](CCCCN)C(=O)N[C@@H](CC(C)C)C(=O)N[C@@H](CC(C)C)C(=O)N[C@@H](CC(=O)O)C(=O)N[C@@H](C)C(=O)N[C@@H](C)C(=O)N[C@@H](CCCCN)C(=O)N[C@@H](CCC(N)=O)C(=O)N[C@H](C(=O)N[C@@H](CC(C)C)C(=O)NCC(=O)NCC(=O)N[C@@H](Cc1ccc(O)cc1)C(=O)N[C@@H](Cc1c[nH]cn1)C(=O)N[C@@H](Cc1c[nH]c2ccccc12)C(=O)N[C@@H](Cc1ccc(O)cc1)C(=O)NCC(=O)N[C@@H](Cc1ccc(O)cc1)C(=O)N[C@H](C(=O)N1CCC[C@H]1C(=O)N[C@@H](CCC(=O)O)C(=O)N[C@@H](CC(N)=O)C(=O)N[C@H](C(=O)N[C@H](C(=O)O)[C@@H](C)CC)C(C)C)[C@@H](C)O)[C@@H](C)CC", "note": "[EGFR-D2K] (H-IKWKKLLDAAKQILGGYHWYGYTPENVI-OH)", "values": [
      {"measurement": "IC50", "setting": "MDA-MB-468 cells [1]", "result": 27.2, "unit": "µM"},
      {"measurement": "IC50", "setting": "HB2 cells", "result": 50.5, "unit": "µM"}
    ]},
    {"smiles": "[H]/N=C(\\N/C(=N/[H])NCCCCCCNC(=N)NC(=N)Nc1ccc(Cl)cc1)Nc1ccc(Cl)cc1", "note": "[chlorhexidine dihydrochloride]", "values": [
      {"measurement": "cell survival relative to untreated, single agent", "setting": "MDA-MB-468 cells [2]", "result": "small and nonsignificant decrease"}
    ]},
    {"smiles": "CC[C@H](C)[C@H](N)C(=O)N[C@@H](CC(=O)O)C(=O)N[C@@H](Cc1c[nH]c2ccccc12)C(=O)N[C@@H](CCCCN)C(=O)N[C@@H](CCCCN)C(=O)N[C@@H](CC(C)C)C(=O)N[C@@H](CC(C)C)C(=O)N[C@@H](CC(=O)O)C(=O)N[C@@H](C)C(=O)N[C@@H](C)C(=O)N[C@@H](CCCCN)C(=O)N[C@@H](CCC(N)=O)C(=O)N[C@H](C(=O)N[C@@H](CC(C)C)C(=O)NCC(=O)NCC(=O)N[C@@H](Cc1ccc(O)cc1)C(=O)N[C@@H](Cc1c[nH]cn1)C(=O)N[C@@H](Cc1c[nH]c2ccccc12)C(=O)N[C@@H](Cc1ccc(O)cc1)C(=O)NCC(=O)N[C@@H](Cc1ccc(O)cc1)C(=O)N[C@H](C(=O)N1CCC[C@H]1C(=O)N[C@@H](CCC(=O)O)C(=O)N[C@@H](CC(N)=O)C(=O)N[C@H](C(=O)N[C@H](C(=O)O)[C@@H](C)CC)C(C)C)[C@@H](C)O)[C@@H](C)CC", "note": "[EGFR-MP1] (H-IDWKKLLDAAKQILGGYHWYGYTPENVI-OH)", "values": [
      {"measurement": "IC50", "setting": "MDA-MB-468 cells [1]", "result": 39.6, "unit": "µM"},
      {"measurement": "IC50", "setting": "BT-474 cells", "result": 98.3, "unit": "µM"},
      {"measurement": "IC50", "setting": "AU-565 cells", "result": 91.4, "unit": "µM"},
      {"measurement": "IC50", "setting": "HB2 cells", "result": 71.4, "unit": "µM"},
      {"measurement": "IC50", "setting": "MDA-MB-231 cells", "result": 39.3, "unit": "µM"},
      {"measurement": "IC50", "setting": "MCF-10A cells", "result": 93.4, "unit": "µM"}
    ]},
    {"smiles": "CC[C@H](C)[C@H](N)C(=O)N[C@@H](CCCCN)C(=O)N[C@@H](Cc1c[nH]c2ccccc12)C(=O)N[C@@H](CCCCN)C(=O)N[C@@H](CCCCN)C(=O)N[C@@H](CC(C)C)C(=O)N[C@@H](CC(C)C)C(=O)N[C@@H](CC(=O)O)C(=O)N[C@@H](C)C(=O)N[C@@H](C)C(=O)N[C@@H](CCCCN)C(=O)N[C@@H](CCC(N)=O)C(=O)N[C@H](C(=O)N[C@@H](CC(C)C)C(=O)NCC(=O)N1CCC[C@H]1C(=O)N[C@@H](CC(C)C)C(=O)NCC(=O)N[C@H](C(=O)N[C@@H](C)C(=O)NCC(=O)N[C@@H](CCC(N)=O)C(=O)N[C@@H](Cc1ccc(O)cc1)C(=O)N[C@@H](Cc1c[nH]cn1)C(=O)N[C@@H](Cc1c[nH]c2ccccc12)C(=O)N[C@@H](Cc1ccc(O)cc1)C(=O)NCC(=O)N[C@@H](Cc1ccc(O)cc1)C(=O)N[C@H](C(=O)N1CCC[C@H]1C(=O)N[C@@H](CCC(=O)O)C(=O)N[C@@H](CC(N)=O)C(=O)N[C@H](C(=O)N[C@H](C(=O)O)[C@@H](C)CC)C(C)C)[C@@H](C)O)[C@@H](C)CC)[C@@H](C)CC", "note": "[EGFR-MMP-D2K] (H-IKWKKLLDAAKQILGPLGIAGQYHWYGYTPENVI-OH)", "values": [
      {"measurement": "hemolysis", "setting": "red blood cells; 50 μM peptide, 1% Triton X-100 = 100%", "result": 5.9, "unit": "%"},
      {"measurement": "IC50", "setting": "MDA-MB-468 cells [1]", "result": 32.1, "unit": "µM"},
      {"measurement": "IC50", "setting": "HB2 cells", "result": 79.8, "unit": "µM"}
    ]},
    {"smiles": "CC[C@H](C)[C@H](N)C(=O)N[C@@H](CC(=O)O)C(=O)N[C@@H](Cc1c[nH]c2ccccc12)C(=O)N[C@@H](CCCCN)C(=O)N[C@@H](CCCCN)C(=O)N[C@@H](CC(C)C)C(=O)N[C@@H](CC(C)C)C(=O)N[C@@H](CC(=O)O)C(=O)N[C@@H](C)C(=O)N[C@@H](C)C(=O)N[C@@H](CCCCN)C(=O)N[C@@H](CCC(N)=O)C(=O)N[C@H](C(=O)N[C@@H](CC(C)C)C(=O)O)[C@@H](C)CC", "note": "[MP1, reference compound] (H-IDWKKLLDAAKQIL-OH)", "values": [
      {"measurement": "hemolysis (in words)", "setting": "red blood cells; three doses", "result": "unacceptably high levels of hemolysis at all doses; also recorded: unacceptably high hemolytic activity"},
      {"measurement": "IC50", "setting": "MDA-MB-468 cells [1]", "result": 23.4, "unit": "µM"},
      {"measurement": "IC50", "setting": "BT-474 cells", "result": 50.6, "unit": "µM"},
      {"measurement": "IC50", "setting": "AU-565 cells", "result": 18.7, "unit": "µM"},
      {"measurement": "IC50", "setting": "HB2 cells", "result": 31.5, "unit": "µM"},
      {"measurement": "IC50", "setting": "MDA-MB-231 cells", "result": 35, "unit": "µM"},
      {"measurement": "IC50", "setting": "MCF-10A cells", "result": 111, "unit": "µM"}
    ]}
  ]
}
